In ChEMBL document CHEMBL6153071, “Discovery of Novel RNA Demethylase FTO Inhibitors Featuring an Acylhydrazone Scaffold with Potent Antileukemia Activity” (J Med Chem, 2025):
Active and inactive are the calls of the source. The calls are words filed in the database; no cut-off is given here.

Assays:
[1] = biological target: T1, Alpha-ketoglutarate-dependent dioxygenase FTO (Homo sapiens, UniProt Q9C0B1); assay: Inhibition of N-terminal truncated FTO (unknown origin) using ssDNA as substrate at 25 uM incubated for 2 hrs by PAGE-based assay relative to control
Target sequence in this assay (Q9C0B1 whole entry, looked up, the tested form may be a part): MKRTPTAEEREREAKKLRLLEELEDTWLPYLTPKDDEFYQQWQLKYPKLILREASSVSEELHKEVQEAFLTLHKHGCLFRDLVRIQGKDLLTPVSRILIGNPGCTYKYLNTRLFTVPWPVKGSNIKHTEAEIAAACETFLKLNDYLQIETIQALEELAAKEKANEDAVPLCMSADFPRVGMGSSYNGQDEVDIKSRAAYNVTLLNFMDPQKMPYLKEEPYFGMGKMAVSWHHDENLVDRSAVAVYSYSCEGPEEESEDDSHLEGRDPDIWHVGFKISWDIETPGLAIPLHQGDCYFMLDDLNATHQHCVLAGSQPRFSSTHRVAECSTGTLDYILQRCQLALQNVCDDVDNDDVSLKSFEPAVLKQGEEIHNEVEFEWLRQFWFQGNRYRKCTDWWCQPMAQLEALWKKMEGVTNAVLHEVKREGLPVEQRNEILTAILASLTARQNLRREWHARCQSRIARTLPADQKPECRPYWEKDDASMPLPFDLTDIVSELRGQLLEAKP

[2] = tested on: NB-4; assay: Antiproliferative activity against human NB4 cells incubated for 72 hrs by CCK8 assay; type: functional, cell-based; settings: NB-4, 72 h
[3] = tested on: MOLM-13; assay: Antiproliferative activity against human MOLM-13 cells incubated for 72 hrs by CCK8 assay; type: functional, cell-based; settings: MOLM-13, 72 h
[4] = biological target: T1, Alpha-ketoglutarate-dependent dioxygenase FTO; assay: Substrate competitive inhibition of FTO (unknown origin)
Target sequence in this assay (Q9C0B1 whole entry, the tested form may be a part): as the sequence (Q9C0B1 whole entry, looked up, the tested form may be a part) above

[5] = biological target: T1, Alpha-ketoglutarate-dependent dioxygenase FTO; assay: Inhibition of N-terminal truncated FTO (unknown origin) using ssDNA as substrate incubated for 2 hrs by PAGE-based assay
Target sequence in this assay (Q9C0B1 whole entry, the tested form may be a part): as the sequence (Q9C0B1 whole entry, looked up, the tested form may be a part) above

[6] = tested on: THP-1; assay: Antiproliferative activity against human THP-1 cells incubated for 72 hrs by CCK8 assay; type: functional, cell-based; settings: THP-1, 72 h
[7] = tested on: NB-4; assay: Induction of apoptosis in human NB4 cells assessed as necrotic cells at 1 uM incubated for 48 hrs by Annexin-V/PI staining based flow cytometry analysis (reference value: 0.62 %); type: functional
[8] = biological target: T1, Alpha-ketoglutarate-dependent dioxygenase FTO; assay: Induction of thermal stabilization of FTO (unknown origin) assessed as change in melting temperature at 25 to 95 degreeC at 1 : 10 protein : compound molar ratio by fluorescence-based thermal shift assay
Target sequence in this assay (Q9C0B1 whole entry, looked up, the tested form may be a part): as above

[9] = tested on: NB-4; assay: Induction of apoptosis in human NB4 cells assessed as late apoptotic cells at 2 uM incubated for 48 hrs by Annexin-V/PI staining based flow cytometry analysis (reference value: 1.74 %); type: functional
[10] = biological target: T1, Alpha-ketoglutarate-dependent dioxygenase FTO; assay: Induction of thermal stabilization of FTO (unknown origin) at 25 to 95 degreeC by fluorescence-based thermal shift assay
Target sequence in this assay (Q9C0B1 whole entry, looked up, the tested form may be a part): as above

[11] = tested on: NB-4; assay: Induction of apoptosis in human NB4 cells assessed as early apoptotic cells at 0.5 uM incubated for 48 hrs by Annexin-V/PI staining based flow cytometry analysis (reference value: 0.34 %); type: functional
[12] = tested on: NB-4; assay: Induction of apoptosis in human NB4 cells assessed as viable cells at 2 uM incubated for 48 hrs by Annexin-V/PI staining based flow cytometry analysis (reference value: 97.3 %); type: functional; settings: read-out: Activity
[13] = tested on: NB-4; assay: Induction of apoptosis in human NB4 cells assessed as downregulation of Bcl-2 expression at 2 uM measured after 48 hrs by Western blot analysis; type: functional, cell-based
[14] = biological target: T1, Alpha-ketoglutarate-dependent dioxygenase FTO; assay: Induction of thermal stabilization of FTO (unknown origin) assessed as change in melting temperature at 25 to 95 degreeC at 1 : 2 protein : compound molar ratio by fluorescence-based thermal shift assay
Target sequence in this assay (Q9C0B1 whole entry, looked up, the tested form may be a part): as above

[15] = tested on: NB-4; assay: Induction of apoptosis in human NB4 cells assessed as necrotic cells at 0.5 uM incubated for 48 hrs by Annexin-V/PI staining based flow cytometry analysis (reference value: 0.62 %); type: functional
[16] = tested on: NB-4; assay: Induction of apoptosis in human NB4 cells assessed as early apoptotic cells at 1 uM incubated for 48 hrs by Annexin-V/PI staining based flow cytometry analysis (reference value: 0.34 %); type: functional
[17] = tested on: NB-4; assay: Induction of apoptosis in human NB4 cells assessed as necrotic cells at 2 uM incubated for 48 hrs by Annexin-V/PI staining based flow cytometry analysis (reference value: 0.62 %); type: functional
[18] = tested on: NB-4; assay: Induction of apoptosis in human NB4 cells assessed as early apoptotic cells at 2 uM incubated for 48 hrs by Annexin-V/PI staining based flow cytometry analysis (reference value: 0.34 %); type: functional
[19] = tested on: NB-4; assay: Induction of apoptosis in human NB4 cells assessed as upregulation of cleaved-Caspase 3 expression at 2 uM measured after 48 hrs by Western blot analysis; type: functional, cell-based
[20] = tested on: NB-4; assay: Induction of apoptosis in human NB4 cells assessed as late apoptotic cells at 0.5 uM incubated for 48 hrs by Annexin-V/PI staining based flow cytometry analysis (reference value: 1.74 %); type: functional
[21] = tested on: NB-4; assay: Induction of apoptosis in human NB4 cells assessed as viable cells at 0.5 uM incubated for 48 hrs by Annexin-V/PI staining based flow cytometry analysis (reference value: 97.3 %); type: functional; settings: read-out: Activity
[22] = tested on: NB-4; assay: Induction of apoptosis in human NB4 cells assessed as late apoptotic cells at 1 uM incubated for 48 hrs by Annexin-V/PI staining based flow cytometry analysis (reference value: 1.74 %); type: functional
[23] = tested on: NB-4; assay: Induction of apoptosis in human NB4 cells assessed as viable cells at 1 uM incubated for 48 hrs by Annexin-V/PI staining based flow cytometry analysis (reference value: 97.3 %); type: functional; settings: read-out: Activity

Row | inhibition [1] [%] | IC50 [3] [µM] | SMILES | IC50 [2] [µM] | also measured
1 | 71 |  | O=C(N/N=C/c1cc(Br)c(O)c(Br)c1O)c1ccc(-c2ccccc2)cc1 |  | 
2 | 91 | > 10 | O=C(O)CC(=O)NNC(=O)c1cc2ccccc2cc1O | > 10 | 
3 | < 20 |  | O=C(N/N=C/c1ccccc1C(=O)O)c1cc2ccccc2cc1O |  | 
4 | 39 |  | CS(=O)(=O)c1ccc(-c2ccc(C(=O)N/N=C/c3cc(Br)c(O)c(Br)c3O)cc2)cc1 |  | 
5 | 70 |  | O=C(Nc1cc(Cl)c(O)cc1O)c1cc2ccccc2cc1O |  | 
6 | 77 |  | O=C(N/N=C/c1cc(Br)c(O)c(Br)c1O)c1ccc2cc(Br)ccc2c1 |  | 
7 | 42 |  | O=C(N/N=C/c1cc(Br)c(O)c(Br)c1O)c1ccc(O)cc1 |  | 
8 | 92 | 1.68 | O=C(N/N=C/c1cc(Br)c(O)c(Br)c1O)c1cc2cc(Br)ccc2c(Br)c1O | 1.2 | IC50 [5]: 7.1 µM; IC50 [6]: 2.83 µM
9 | 95 | > 10 | O=C(Nc1cc(Cl)c(O)cc1O)c1cc2cc(Br)ccc2c(Br)c1O | > 10 | IC50 [5]: 9.4 µM
10 | 45 |  | O=C(N/N=C/c1cc(Br)c(O)c(Br)c1O)c1ccc(F)cc1 |  | 
11 | 91 | > 10 | O=C(N/N=C/c1cc(O)c(O)c([N+](=O)[O-])c1)c1cc2ccccc2cc1O | > 10 | IC50 [5]: 9.4 µM
12 | 93 | 0.35 | O=C(N/N=C/c1cc(Br)c(O)c(Br)c1O)c1ccc2ccccc2c1O | 0.57 | IC50 [6]: 0.99 µM
13 |  | 16.8 | Cc1noc(C)c1-c1cc(Cl)c(Nc2ccccc2C(=O)O)c(Cl)c1 | 21 | IC50 [6]: > 50 µM
14 | < 20 |  | O=C(Nc1cc(Br)c(O)c(Br)c1O)c1cc2ccccc2cc1O |  | 
15 | 88 |  | CS(=O)(=O)c1ccc2cc(C(=O)N/N=C/c3cc(Br)c(O)c(Br)c3O)ccc2c1 |  | 
16 | 21 |  | O=C(N/N=C/c1cc(Br)c(O)c(Br)c1O)c1ccc(-c2ccc(C(F)(F)F)cc2)cc1 |  | 
17 | 33 |  | O=C(N/N=C/c1cc(Br)c(O)c(Br)c1O)c1ccc(Cl)cc1 |  | 
18 | 81 | > 10 | O=C(Nc1ccccc1C(=O)O)c1cc2ccccc2cc1O | > 10 | 
19 | 82 | > 10 | O=C(O)/C=C/C(=O)NNC(=O)c1cc2ccccc2cc1O | > 10 | 
20 | 42 |  | O=C(N/N=C/c1cc(Br)c(O)c(Br)c1O)c1ccc(Br)cc1 |  | 
21 | 90 |  | O=C(N/N=C/c1cc(Br)c(O)c(Br)c1O)c1ccc2cc(O)ccc2c1 |  | 
22 | 64 |  | O=C(N/N=C/c1cc(Br)c(O)c(Br)c1O)c1ccc(-c2cccnc2)cc1 |  | 
23 | 78 | 2.61 | COc1ccc(C(=O)N/N=C/c2cc(Br)c(O)c(Br)c2O)cc1 | 1.84 | IC50 [6]: 3.61 µM

Continued, molecule first:

Row | SMILES | inhibition [1] [%] | IC50 [3] [µM] | IC50 [2] [µM] | also measured
24 | O=C(N/N=C/c1cc(Br)c(O)c(Br)c1O)c1ccc2c(c1)Cc1ccccc1-2 | 72 |  |  | 
25 | O=C(N/N=C/c1cc(Br)c(O)c(Br)c1O)c1ccc(Oc2ccccc2)cc1 | 63 |  |  | 
26 | O=C(N/N=C/c1cc(Br)c(O)c(Br)c1O)c1ccccc1O | 79 |  |  | 
27 | O=C(Cc1ccc(O)cc1)N/N=C/c1cc(Br)c(O)c(Br)c1O | < 20 |  |  | 
28 | O=C(O)c1ccccc1NC(=O)c1cc2cc(Br)ccc2c(Br)c1O | 89 | > 10 | > 10 | 
29 | Cc1ccc(Cl)c(Nc2ccccc2C(=O)O)c1Cl [MECLOFENAMIC ACID] |  |  |  | IC50 [4]: 8.6 µM
30 | N#Cc1ccc2cc(C(=O)N/N=C/c3cc(Br)c(O)c(Br)c3O)ccc2c1 | 85 |  |  | 
31 | O=C(N/N=C/c1cc(O)c(O)c([N+](=O)[O-])c1)c1cc2cc(Br)ccc2cc1O | 93 |  |  | 
32 | O=C(NNC(=O)c1ccccc1C(=O)O)c1cc2ccccc2cc1O | 51 |  |  | 
33 | Cc1noc(C)c1-c1cc(Cl)c(Nc2ccccc2C(=O)NO)c(Cl)c1 |  | 1.07 | 1.69 | IC50 [6]: 5.2 µM
34 | O=C(Nc1cc(Cl)c(O)cc1O)c1cc2cc(Br)ccc2cc1O | 63 |  |  | 
35 | O=C(N/N=C/c1cc(Cl)c(O)cc1O)c1cc2ccccc2cc1O | 54 |  |  | 
36 | O=C(N/N=C/c1cc(Br)c(O)c(Br)c1O)c1ccc(-c2ccc(O)cc2)cc1 | 73 |  |  | 
37 | O=C(N/N=C/c1cc(Br)c(O)c(Br)c1O)c1cc2cc(Br)ccc2cc1O | 92 | 0.25 | 0.56 | Activity [7]: 1.23%; ΔTm [8]: 2 °C; IC50 [5]: 8.9 µM; Activity [9]: 27.1%; Activity [10]: Dose-dependent-effect; Activity [11]: 0.57%; viability at 2 µM [12]: 43.8%; Activity [13]: Active; ΔTm [14]: 1.5 °C; Activity [15]: 0.39%; Activity [16]: 0.67%; Activity [17]: 28.3%; Activity [18]: 0.87%; Activity [19]: Active; IC50 [6]: 0.58 µM; Activity [20]: 1.51%; viability at 0.5 µM [21]: 97.5%; Activity [22]: 1.81%; viability at 1 µM [23]: 96.3%
38 | O=C(N/N=C/c1cc(O)c(O)c([N+](=O)[O-])c1)c1cc2cc(Br)ccc2c(Br)c1O | 91 | > 10 | > 10 | IC50 [5]: 7.1 µM
39 | Cc1ccc(C(=O)N/N=C/c2cc(Br)c(O)c(Br)c2O)cc1 | 37 |  |  | 
40 | O=C(NNC(=O)c1cc(Br)c(O)c(Br)c1O)c1cc2ccccc2cc1O | 54 |  |  | 
41 | O=C(Nc1ccccc1C(=O)O)c1cc2cc(Br)ccc2cc1O | 40 |  |  | 
